{"source": "patent US20120100071A1", "about": "“SYNTHESIS AND USE OF RADIOLABELLED INSULIN ANALOGUES” (priority 2009, published 2012)", "test_system": "Akt1 phosphorylation (S473) in H4IIE cells", "experiment": "Akt1 activation, phospho-Akt1 (Ser473) ELISA", "assay_type": "cell-based", "settings": "FIG. 10c", "experimental": "The insulin receptor autophosphorylation was assessed through the use of an enzyme-linked immunosorbant assay (ELISA). […] Finally, to probe the downstream signaling resulting from insulin binding, a second ELISA experiment was performed to monitor stimulation of Akt phosphorylation (S473).\nConfluent H4IIE cells were serum deprived for 4 hours in […] β-mercaptoethanol and 0.25% bovine serum albumin. […] Cells were lysed in 0.5 ml 1× Cell Lysis Buffer (Cell Signaling, #7160) and cells broken open by brief sonication. Lysates were collected and centrifuged for 10 minutes at 14,000 rpm. Supernatants were recovered, diluted 1:1 with Sample Diluent, and phospho-Akt1 was quantitated in 100 μL of each diluted supernatant using the PathScan phospho-Akt1 (Ser473) ELISA (Cell Signaling, #7160).", "data": [{"substance": "B^1-[Re(CO)3{bis(2-pyridylmethyl)pentanoyl-6-aminohexanoyl)}]insulin [compound 6]", "values": [{"measurement": "Akt phosphorylation (S473) response compared to unmodified human insulin", "value": "not significantly different"}]}]}
